In patent US20080064027A1, “TEL/Etv6-mediated inhibition of cell proliferation” (priority 2002, published 2008):
Where two headings read alike, the source gives them in different places.

How the values were obtained:
A375-Stat3-ER cells [1] = details: for effect on cell cycle profile: A375-Stat3-ER cells
Experimental: In brief, cells were harvested at the indicated times (24, 48 and 72 h) washed three times with ice-cold PBS and resuspended in propidium iodide buffer (1 mM sodium citrate (pH 4.0), 1.5 mM NaCl, 5 mM EDTA, 5 mM EGTA, 0.1% NP40, 4 mg/ml propidium iodide and 80 mg/ml of RNase A). After 30 min incubation in the dark on ice, cell cycle distribution was measured with a Becton Dickinson FACS can flow cytometer.

A375-Stat3-ER cells [2] = details: for reduction of A375-Stat3ER cell number: 3 days
Experimental: In order to evaluate the role of Stat3 in A375 cell proliferation, A375-Stat3-ER cells were grown in the presence of OSM or 4HT and cell number determined over 3 days.

TEL [3] = test: TEL expression in human cancer cell lines; format: cell-based
Source text: TEL is usually expressed as two protein isoforms corresponding to initiation of TEL mRNA translation at ATG codon 1 and 43 (TEL and TEL43). […] To ascertain if TEL is a natural target of Stat3, we examined its expression in human cancer cell lines in response to OSM or IL-6. […] However, TEL expression was unchanged in other cell lines, including the prostate cancer cells PC3 and LNCaP and MDA-MB-468 breast cancer cells, even though it was expected that Stat3 is activated in each of these cell lines by IL-6/OSM treatment.

[4] = tested on: Stat3 transcriptional activity; test: APRE-driven luciferase reporter assay; format: cell-based; details: for Relative Luciferase Activity: 24 hours, control = 1; for Stat3-dependent transcription of luciferase, increase over control: Stat3-ER-expressing A375, without TEL siRNA
Source text: Luciferase assays are used to verify that the Stat3-ER construct is transcriptionally active. For this purpose, a luciferase reporter gene driven by the acute-phase response element (APRE) of the alpha 2-macroglobulin gene, a target for Stat1 and Stat3, was used.
Cells (2×10^6 cells/6 well dish) were transfected with a reporter plasmid containing four copies of acute phase responsible element (APRE) upstream of the minimal junB promoter linked to the luciferase gene (T Hirano, EMBO Journal, 1996, 15, 3651-3658), together with the internal control plasmid pRL-SV40 from Promega (Madison, Wis.). Twenty-four hours after the transfection, cells were either left unstimulated or stimulated with OSM (PeproTechEC, London, United Kingdom), 4-hydroxytamoxifen (4HT; Sigma, St. Louis, Mo.) or a combination of 4HT/OSM for 24 hours. The preparation of cell extracts and measurement of luciferase activities were carried out using the Dual-Luciferase reporter assay system from Promega (Madison, Wis.) in an Autolumat LB 953 (Berthold Technologies, Wildbad, Germany). Changes in firefly luciferase activity were expressed relative to Renilla luciferase activity in the same sample.

Stat3 = test: TEL-Stat3 interaction, immunoprecipitation from nuclear extracts; format: binding
Experimental: Since the TEL DNA-binding domain is not required for repression of Stat3 activity, this Example tests the possibility that TEL interacts directly with Stat3. Extracts from nuclear-enriched fractions were prepared from control or OSM-stimulated A375 cells. […] Endogenous TEL was present in Stat3 immunoprecipitates and the levels of TEL associating with Stat3 increased in OSM-treated compared to control-treated nuclear extracts. Conversely, Stat3 is present in a TEL-containing complex, pulled down through an immobilized GGM-containing oligonucleotide, which is a binding site for TEL.

C/EBPdelta mRNA = test: C/EBPdelta expression (quantitative PCR); format: cell-based; details: quantitative PCR
Experimental: A LacZ siRNA was used as control. The designed RNA oligonucleotides were ‘blasted’ against the GENBANK/EMBL databank to ensure gene specificity. The RNA oligonucleotides were obtained commercially. Transfection with expression vectors was carried out 1 day after the siRNA transfection using Effectene.

TEL [5] = test: TEL protein level by Western blotting; format: cell-based; details: for TEL isoforms (TEL and TEL43) expression: ASER cells
Experimental: Protein analysis was carried out by Western blotting. In brief, cells were harvested in NP40 extraction buffer (50 mM Tris (pH 7.5), 1 mM EGTA, 5 mM EDTA, 120 mM NaCl, 1% NP40, 2 mM sodium orthovanadate, 50 mM sodium fluoride, 20 mM ? -glycerophosphate, 10 μg/ml leupeptin, 10 μg/ml aprotinin, and 0.5 mM phenylmethylsulfonyl fluoride) for 5 min on ice. The lysates were clarified by centrifugation and protein concentrations were determined using the Bio-Rad protein assay reagent (Bio-Rad Laboratories Gmbh, Munich, Germany). For immunoprecipitaton, equal amounts of proteins were incubated with Stat3 (C-20) from Santa Cruz Biotechnology (Santa Cruz, Calif.) for 1 hr. Following SDS-polyacrylamide gel eletrophoresis (SDS-PAGE), proteins were blotted onto polyvinylidene difluoride membranes (Boehringer Mannheim, Mannheim, Germany). After blocking with 10% horse serum (Life Technologies, Inc.) in 50 mM Tris pH 7.5, 150 mM NaCl, 0.05% Tween 20, filters were probed with specific antibodies; c-TEL, Stat3 (C-20) from Santa Cruz Biotechnology (Santa Cruz, Calif.), phospho-Stat3 (Tyr 705) from Cell Signaling Technology (Beverly, Mass.). Proteins were visualized with peroxidase-coupled secondary antibodies using the enhanced chemiluminescence detection system (Amersham Pharmacia Biotech, Little Chalfont, United Kingdom).

parent A375 cells = test: Proliferation of parent A375 cells; details: 4HT 1 microM
[6] = 24 h, 4HT 1 microM, OSM 100 ng/ml, control 1.48
[7] = 48 h, 4HT 1 microM, OSM 100 ng/ml, control 4.33
[8] = 72 h, 4HT 1 microM, OSM 100 ng/ml, control 7.83
[9] = nuclear lysates of OSM-stimulated A375 cells
[10] = 4HT 1 microM, Stat3-ER expressing A375 cells

In the case of oncostatin M [OSM], the “effect on cell cycle profile” value (A375-Stat3-ER cells [1]) is reported as “little effect”, the “Number of Cells” value (A375-Stat3-ER cells [2]; 0 h (start of treatment)) is reported as 0.8 ×10^5 and the “reduction of A375-Stat3ER cell number” value (A375-Stat3-ER cells [2]; 4HT 1 microM, OSM 100 ng/ml) is reported as “about 40%”. The “Number of Cells” value (A375-Stat3-ER cells [2]; [6]) was 1.15 ×10^5, the “Number of Cells” value (A375-Stat3-ER cells [2]; [7]) was 2.58 ×10^5 and the “Number of Cells” value (A375-Stat3-ER cells [2]; [8]) was 4.35 ×10^5. The TEL expression (TEL [3]; PC3, LNCaP prostate cancer cells and MDA-MB-468 breast cancer cells) was “unchanged”, the TEL expression (TEL [3]; T47D and SKBr-3 breast cancer cells, DU145 prostate carcinoma cells, HepG2 hepatoma-derived cells) was “significantly increased” and the “activation of Stat3 transcriptional activity among IL-6 family members tested (IL-6, LIF)” value ([4]; A375 cells) was “most potent activator”. The “Relative Luciferase Activity” value ([4]; OSM 1 ng/ml, Stat3-ER expressing A375 cells) was 3, the “Relative Luciferase Activity” value ([4]; OSM 10 ng/ml, Stat3-ER expressing A375 cells) was 9 and the “Relative Luciferase Activity” value ([4]; OSM 100 ng/ml, Stat3-ER expressing A375 cells) was 18. The “Stat3-dependent transcription of luciferase, increase over control” value [4] was “about 9 fold”, the “levels of TEL associating with Stat3 in Stat3 immunoprecipitates” value (Stat3; OSM-treated compared to control-treated nuclear extracts) was “increased” and the “nuclear Stat3 levels” value (Stat3; [9]) was “expected increase in Stat3 levels”. For the same compound, the “nuclear content of TEL” value (Stat3; [9]) was “not affected”.
For CCC(=C(c1ccc(O)cc1)c1ccc(OCCN(C)C)cc1)c1ccccc1 [4HT, 4-hydroxytamoxifen, reference compound], the “C/EBPdelta mRNA” value (C/EBPdelta mRNA) was “significantly increased”, the “TEL protein level upon treatment” value (TEL [5]; Stat3-ER-expressing A375 cells) was “strongly increased” and the “TEL isoforms (TEL and TEL43) expression” value (TEL [5]; after 24 hrs of treatment) was “strongly increased”. For the same compound, the “TEL isoforms (TEL and TEL43) expression” value (TEL [5]; within 8 hrs of 4HT addition) was “significantly increased”, the Apoptotic cells (A375-Stat3-ER cells [1]; 24 h) was <1% and the “G1 (change in percentage of cells)” value (A375-Stat3-ER cells [1]; 24 h) was “+1%”. For the same compound, the “G2/M (change in percentage of cells)” value (A375-Stat3-ER cells [1]; 24 h) was “+2%”, the “S (change in percentage of cells)” value (A375-Stat3-ER cells [1]; 24 h) was −3% and the Apoptotic cells (A375-Stat3-ER cells [1]; 48 h) was <1%. The “G2/M (change in percentage of cells)” value (A375-Stat3-ER cells [1]; 48 h) was −6%, the “S (change in percentage of cells)” value (A375-Stat3-ER cells [1]; 48 h) was “+1%” and the “G1 (change in percentage of cells)” value (A375-Stat3-ER cells [1]; 72 h) was −1%. For the same compound, the “G2/M (change in percentage of cells)” value (A375-Stat3-ER cells [1]; 72 h) was “+1%”, the “S (change in percentage of cells)” value (A375-Stat3-ER cells [1]; 72 h) was 0% and the Apoptotic cells (A375-Stat3-ER cells [1]; 72 h (3 days)) was <1%. For the same compound, the “effect on cell cycle profile” value (A375-Stat3-ER cells [1]) was “only marginally affected”, the “entry into S phase after release of cells synchronized in G1” value (A375-Stat3-ER cells [1]; A375 Stat3-ER cells) was “delayed relative to control cells” and the “Number of Cells” value (A375-Stat3-ER cells [2]; 0 h (start of treatment)) was 0.8 ×10^5. The “reduction of A375-Stat3ER cell number” value (A375-Stat3-ER cells [2]; 4HT 1 microM, OSM 100 ng/ml) was “about 40%”, the “Number of Cells” value (A375-Stat3-ER cells [2]; [6]) was 1.49 ×10^5 and the “Number of Cells” value (A375-Stat3-ER cells [2]; [7]) was 3.60 ×10^5. For the same compound, the “Number of Cells” value (A375-Stat3-ER cells [2]; [8]) was 4.44 ×10^5, the “Relative Luciferase Activity” value [4, 10] was 29 and the “stimulation of transcription from the APRE” value [4, 10] was “more efficiently than 100 ng/ml OSM”. The “Stat3-dependent transcription of luciferase, increase over control” value [4] was “about 6 fold” and the “proliferation of the parent A375 cells” value (parent A375 cells) was “does not affect proliferation”.
